In the supplement of paper PMC7017272:
± gives the standard deviation of the averaged measurements.

How the values were obtained:
Conditions in all cases: treatment time: 3 days
[1] = test system: UT-SCC-14; assay: drug sensitivity score (DSS); higher = more sensitive; extreme values may be limits of the assay
Summary of the method: (§1)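 Three growth formats were used for HPV-negative HNSCC cell lines in 384-well plates at 500 cells/well: bare plastic, wells coated with Matrigel or Myogel (500 µg/mL), and embedding in Matrigel or Myogel plus rat collagen I. Compounds were added at five 10-fold concentrations, and after 3 days CellTiter-Glo 2.0 luminescence was recorded and normalised to vehicle (0.1% DMSO) and cell-killing control wells. IC50, maximal inhibition and drug sensitivity score came from percent-inhibition dose–response fitting in the FIMM pipeline.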

[2] = test system: UT-SCC-8; assay: as above
Summary of the method: as §1

[3] = test system: UT-SCC-73; assay: as above
Summary of the method: as §1

[4] = test system: UT-SCC-28; assay: as above
Summary of the method: as §1

[5] = test system: UT-SCC-42B; assay: as above
Summary of the method: as §1

[6] = test system: UT-SCC-81; assay: as above
Summary of the method: as §1

[7] = test system: UT-SCC-42A; assay: as above
Summary of the method: as §1

[8] = test system: UT-SCC-44; assay: as above
Summary of the method: as §1

[9] = test system: UT-SCC-106A; assay: as above
Summary of the method: as §1

[10] = test system: UT-SCC-24B; assay: as above
Summary of the method: as §1

[11] = test system: UT-SCC-40; assay: as above
Summary of the method: as §1

[12] = test system: UT-SCC-24A; assay: drug sensitivity score (DSS); higher = more sensitive
Description: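 HNSCC cell lines (500 cells/well, 384-well) were cultured on plastic, on top of (2D) or embedded (3D) in Matrigel or human leiomyoma matrix Myogel (500 ug/mL; Myogel 3D mixed with rat collagen I). Cells were treated for 3 days with 5 ten-fold concentrations of each drug, and viability was read by CellTiter-Glo. Suffixes _1/_2/_3 on drug names are replicates.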

[13] = culture condition: embedded in Myogel + collagen I
[14] = culture condition: on top of Matrigel
[15] = culture condition: on top of Myogel
[16] = culture condition: plastic 2D (no matrix)
[17] = culture condition: embedded in Matrigel

SMILES: COc1cc2ncnc(Nc3ccc(F)c(Cl)c3)c2cc1OCCCN1CCOCC1 [Gefitinib]
- drug sensitivity score [1, 13]: 1.63 ± 2.7 DSS
- drug sensitivity score [1, 14]: 3.87 ± 2.3 DSS
- drug sensitivity score [1, 15]: 3.33 ± 3 DSS
- drug sensitivity score [1, 16]: 2.6 ± 4.5 DSS
- drug sensitivity score [2, 17]: 14 ± 4.7 DSS
- drug sensitivity score [2, 13]: 0 DSS
- drug sensitivity score [2, 14]: 7.87 ± 2.8 DSS
- drug sensitivity score [2, 15]: 2.4 ± 3.8 DSS
- drug sensitivity score [2, 16]: 5.97 ± 4.5 DSS
- drug sensitivity score [3, 17]: 0.0667 ± 0.12 DSS
- drug sensitivity score [3, 13]: 1.73 ± 3 DSS
- drug sensitivity score [3, 14]: 1.23 ± 2.1 DSS
- drug sensitivity score [3, 15]: 0.133 ± 0.15 DSS
- drug sensitivity score [3, 16]: 0.2 ± 0.27 DSS
- drug sensitivity score [4, 17]: 0.767 ± 1.3 DSS
- drug sensitivity score [4, 13]: 0 DSS
- drug sensitivity score [4, 14]: 0.433 ± 0.75 DSS
- drug sensitivity score [4, 16]: 0 DSS
- drug sensitivity score [5, 17]: 12.3 ± 6.1 DSS
- drug sensitivity score [5, 14]: 2.67 ± 4.6 DSS
- drug sensitivity score [5, 15]: 0 DSS
- drug sensitivity score [5, 16]: 1.07 ± 1.7 DSS
- drug sensitivity score [6, 17]: 23.2 ± 0.32 DSS
- drug sensitivity score [6, 13]: 1.57 ± 2.7 DSS
- drug sensitivity score [6, 14]: 10.8 ± 5.8 DSS
- drug sensitivity score [6, 15]: 1 ± 1.1 DSS
- drug sensitivity score [6, 16]: 3.83 ± 5.2 DSS
- drug sensitivity score [7, 13]: 0 DSS
- drug sensitivity score [7, 14]: 5 ± 4 DSS
- drug sensitivity score [7, 15]: 1.43 ± 1.6 DSS
- drug sensitivity score [7, 16]: 2 ± 1.4 DSS
- drug sensitivity score [8, 17]: 0 DSS
- drug sensitivity score [8, 13]: 0.567 ± 0.98 DSS
- drug sensitivity score [8, 14]: 0.5 ± 0.7 DSS
- drug sensitivity score [8, 15]: 1.03 ± 1.5 DSS
- drug sensitivity score [8, 16]: 0.167 ± 0.29 DSS
- drug sensitivity score [9, 17]: 4.63 ± 3.7 DSS
- drug sensitivity score [9, 13]: 0.4 ± 0.69 DSS
- drug sensitivity score [9, 14]: 8.13 ± 3.1 DSS
- drug sensitivity score [9, 15]: 0.1 ± 0.17 DSS
- drug sensitivity score [9, 16]: 7.53 ± 1 DSS
- drug sensitivity score [10, 17]: 12.5 ± 1.3 DSS
- drug sensitivity score [10, 13]: 10.1 ± 3.4 DSS
- drug sensitivity score [10, 14]: 12.4 ± 1 DSS
- drug sensitivity score [10, 15]: 5.73 ± 1.2 DSS
- drug sensitivity score [10, 16]: 17.5 ± 0.64 DSS
- drug sensitivity score [11, 17]: 6.87 ± 1.9 DSS
- drug sensitivity score [11, 13]: 2.33 ± 2.6 DSS
- drug sensitivity score [11, 14]: 3.7 ± 0.7 DSS
- drug sensitivity score [11, 15]: 0.433 ± 0.51 DSS
- drug sensitivity score [11, 16]: 0.267 ± 0.25 DSS
- drug sensitivity score [12, 17]: 21.1 ± 1.1 DSS
- drug sensitivity score [12, 14]: 17 ± 2.1 DSS
- drug sensitivity score [12, 15]: 3.27 ± 2.5 DSS
- drug sensitivity score [12, 16]: 16.4 ± 3.7 DSS
